Test results taken from patent EP2975033A1, “Improved cysteine-protease inhibitors” (Universitat Jaume I, priority 2014, dated 2016).
≈ marks a conversion by molar mass, not a printed value. Where two headings read alike, the source gives them in different places.

What was measured:
Cathepsin L (human) = target: T1, Cathepsin L (human) (Homo sapiens, UniProt P07711); test: Protease assay, fluorogenic substrate Z-Phe-Arg-AMC: Cathepsin L; assay type: biochemical; details: CL=CathepsinL; for IC50: read-out: CL(IC50), 25 °C, pH 6.5, 6,25 µM substrate
T1 construct: Cathepsin L (human liver) Calbiochem; purchased Calbiochem; host or cells: human liver (tissue-derived)
T1 sequence (P07711 114-333): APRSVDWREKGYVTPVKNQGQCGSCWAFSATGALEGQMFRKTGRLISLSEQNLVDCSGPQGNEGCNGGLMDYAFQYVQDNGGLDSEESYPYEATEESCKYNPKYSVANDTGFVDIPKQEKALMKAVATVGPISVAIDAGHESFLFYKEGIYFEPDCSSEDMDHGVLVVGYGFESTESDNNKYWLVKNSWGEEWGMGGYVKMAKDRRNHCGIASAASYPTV
Description: (§1) 2.1.1. Protease Assays as shown in tables 1 and 2: Cathepsin L (human), Cathepsin B (human), Rhodesain (Trypanosoma brucei rhodesiense), Falcipain 2 (Plasmodium falciparum)
(§2) Enzyme assays used to identify inhibitors of the target cysteine proteases. The effect is detected measuring fluorescence increase due to hydrolysis of fluorogenic substrates by the target enzymes in absence and presence of potential inhibitors.
(§3) • a. Proteins (enzymes): • Cathepsin L (human liver) Calbiochem • Cathepsin B (human liver) Calbiochem • Rhodesain: recombinantly expressed according to ref.: Caffrey, C. R.; Hansell, E.; Lucas, K. D.; Brinen, L. S.; Hernandez, A. A.; Cheng, J.; Gwaltney, S. L., II; Roush, W. R.; Stierhof, Y. D.; Bogyo, M.; Steverding, D.; McKerrow, J. H. Active site mapping, biochemical properties and subcellular localization of rhodesain, the major cysteine protease of Trypanosoma • Falcipain 2: recombinantly expressed according to ref.: Pandey, K. C.; Wang, S. X.; Sijwali, P. S.; Lau, A. L.; McKerrow, J. H.; Rosenthal, P. J. The Plasmodium falciparum cysteine protease falcipain-2 captures its substrate, hemoglobin, via a unique motif. Proc. Natl. Acad. Sci. U.S.A. 2005, 102, 9138-9143. • b. Buffers: • Cathepsin B: 50 mM Tris-Puffer pH 6.5 mit 2 mM DTT, 5 mM EDTA, 200 mM NaCl, 0.005% Brij35 • Cathepsin L: 50 mM Tris-Puffer pH 6.5 mit 2 mM DTT, 5 mM EDTA, 200 mM NaCl, 0.005% Brij35 • Rhodesain: 50 mM Acetat-Puffer pH 5.5 mit 5 mM DTT, 5 mM EDTA, 200 mM NaCl, 0.005% Brij35 • Falcipain 2: 50 mM Acetat-Puffer pH 5.5 mit 5 mM DTT, 5 mM EDTA, 200 mM NaCl, 0.005% Brij35 • c. Substrates: • Cathepsin L: 6,25 µM Z-Phe-Arg-7-amino-4-methylcumarin, HCl von Bachem, Ex 380 nm, Em 460 nm • Cathepsin B: 100 µM Z-Phe-Arg-7-amino-4-methylcumarin, HCl von Bachem, Ex 380 nm, Em 460 nm • Rhodesain: 10µM Z-Phe-Arg-7-amino-4-methylcumarin, HCl von Bachem, Ex 380 nm, Em 460 nm • Falcipain 2: 25µM Z-Phe-Arg-7-amino-4-methylcumarin, HCl von Bachem, Ex 380 nm, Em 460 nm • Reference substance(s)/positive control(s): E64 • d. Solvent for inhibitors and substrates: DMSO 99,5% (GC) DC4540, Sigma • e. Measurement device: Tecan Fluorescence spectrophotometer infinite F200 Pro • f. Well plates: 96 well plates, Lia-Plate White, Greiner bio-one, flat bottom, high binding • g. Methodology: Substrates and inhibitor stock solutions are prepared in DMSO and diluted with the respective assay buffer (final DMSO concentration: […]). Enzyme stock solutions are diluted with assay buffer to yield a fluorescence increase of dF/min ≈ _20. Total volume: 200 µL (180 µL of assay buffer, 5 µL of enzyme solution, 10 µL of DMSO or inhibitor solution, 5 µL of substrate solution). Assays are started by the addition of substrate solution. Fluorescence increase is detected over a period of 10 - 30 min, depending on time dependent (30 min) or non-time dependent (10 min) inhibition. • h. Temp: 25 °C • i. DATA-[…] • Software: Grafit 5.013 • Ki values are calculated from IC50 values (obtained by the 4-parameter IC50 equation) using the Chen-Prusoff equation: Ki=IC50/(1 + [S]/Km)
(§4) In vitro inhibition of cysteine-proteases cruzain (CR) (Trypanosoma cruzi (T. cruzi)), rhodesain (RD) (T. brucei), cathepsin B (CB), falcipain (FP2) (Plasmodium falciparum) and cathepsin L (CL) was assessed by quantification of the resulting fluorescence emission of the proteolytic breakdown of synthetic compound Z-Phe-Arg-AMC (Bachem). The results of this determination are shown in tables 1 and 2 illustrated above.

Rhodesain = target: T2, Rhodesain (Trypanosoma brucei rhodesiense, UniProt Q95PM0); test: Protease assay, fluorogenic substrate Z-Phe-Arg-AMC: Rhodesain; assay type: biochemical; details: for IC50: RD=Rhodesain, 25 °C, pH 5.5, 10µM substrate
T2 construct: made in house
T2 sequence (Q95PM0 entry or part of it): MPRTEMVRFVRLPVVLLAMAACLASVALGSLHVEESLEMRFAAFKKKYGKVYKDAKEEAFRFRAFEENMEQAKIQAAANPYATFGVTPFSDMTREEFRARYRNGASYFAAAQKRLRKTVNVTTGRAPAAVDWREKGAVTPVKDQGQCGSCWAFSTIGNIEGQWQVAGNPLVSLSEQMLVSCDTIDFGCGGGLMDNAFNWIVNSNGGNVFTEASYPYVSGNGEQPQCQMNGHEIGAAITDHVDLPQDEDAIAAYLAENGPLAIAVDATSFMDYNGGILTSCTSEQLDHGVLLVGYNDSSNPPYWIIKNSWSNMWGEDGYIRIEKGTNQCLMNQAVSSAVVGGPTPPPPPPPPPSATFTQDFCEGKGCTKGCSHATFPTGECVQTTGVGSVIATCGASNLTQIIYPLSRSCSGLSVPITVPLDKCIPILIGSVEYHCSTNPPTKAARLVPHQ
Description: as §1, §2, §3, §4

Falcipain 2 = target: T3, Falcipain 2 (Plasmodium falciparum, UniProt Q8I6U4); test: Protease assay, fluorogenic substrate Z-Phe-Arg-AMC: Falcipain 2; assay type: biochemical; details: FP2=Falcipain2
T3 construct: made in house
T3 sequence (Q8I6U4 244-484): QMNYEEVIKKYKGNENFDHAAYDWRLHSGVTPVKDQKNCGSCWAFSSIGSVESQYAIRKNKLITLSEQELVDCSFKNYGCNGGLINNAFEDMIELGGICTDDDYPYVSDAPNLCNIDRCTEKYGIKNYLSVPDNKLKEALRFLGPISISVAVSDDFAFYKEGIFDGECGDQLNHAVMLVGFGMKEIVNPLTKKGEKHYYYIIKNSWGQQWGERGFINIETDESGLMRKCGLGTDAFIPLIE
Description: as §1, §2, §3, §4

Cathepsin B (human) = target: T4, Cathepsin B (human) (Homo sapiens, UniProt P07858); test: Protease assay, fluorogenic substrate Z-Phe-Arg-AMC: Cathepsin B; assay type: biochemical; details: CB=CathepsinB; for IC50: 25 °C, pH 6.5, 100 µM substrate, read-out: CBIC50micM
T4 construct: Cathepsin B (human liver) Calbiochem; purchased Calbiochem; host or cells: human liver (tissue-derived)
Description: as §1, §2, §3, §4

cruzain (CR) = cruzain (CR) (Trypanosoma cruzi, UniProt P25779); test: In vitro inhibition of cruzain, fluorescence of Z-Phe-Arg-AMC breakdown; assay type: biochemical
cruzain (CR), sequence (P25779 123-467): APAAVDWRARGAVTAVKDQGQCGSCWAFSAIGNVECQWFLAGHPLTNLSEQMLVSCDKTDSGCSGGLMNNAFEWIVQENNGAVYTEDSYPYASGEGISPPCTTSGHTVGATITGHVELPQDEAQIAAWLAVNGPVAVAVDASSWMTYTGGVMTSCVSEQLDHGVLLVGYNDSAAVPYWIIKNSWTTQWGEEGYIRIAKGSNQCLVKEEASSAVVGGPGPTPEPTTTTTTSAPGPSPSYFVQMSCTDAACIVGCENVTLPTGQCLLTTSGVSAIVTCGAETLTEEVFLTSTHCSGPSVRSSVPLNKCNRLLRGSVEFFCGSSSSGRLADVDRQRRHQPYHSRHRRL
Procedure: as §2, §4

[1] = test system: T. cruzi Tulahuen strain C2C4; test: Activity against T. cruzi in L-6 cells (beta-galactosidase, CPRG); assay type: cell-based; details: Trypanosoma cruzi, TULAHUEN, L6
Procedure: (§5) For all the susceptibility assays with parasites and cells, each drug was tested in duplicate and each assay was repeated at least once. • a. Activity against Trypanosoma brucei rhodesiense STIB900. This stock was isolated in 1982 from a human patient in Tanzania and after several mouse passages cloned and adapted to axenic culture conditions (Baltz et al 1985) Minimum Essential Medium (50 µl) supplemented with 25 mM HEPES, 1g/l additional glucose, 1% MEM non-essential amino acids (100x), 0.2 mM 2-mercaptoethanol, 1 mM Na-pyruvate and 15% heat inactivated horse serum was added to each well of a 96-well microtiter plate. Serial drug dilutions of eleven 3-fold dilution steps covering a range from 100 to 0.002 µg/ml were prepared. Then 4x10^3 bloodstream forms of T. b. rhodesiense STIB 900 in 50 µl was added to each well and the plate incubated at 37 °C under a 5 % CO2 atmosphere for 70 h. 10 µl Alamar Blue (resazurin, 12.5 mg in 100 ml double-distilled water) was then added to each well and incubation continued for a further 2-4 h (Raz et al 1997). Then the plates were read with a Spectramax Gemini XS microplate fluorometer (Molecular Devices Cooperation, Sunnyvale, CA, USA) using an excitation wave length of 536 nm and an emission wave length of 588 nm. The IC50 values were calculated by linear regression (Huber 1993) from the sigmoidal dose inhibition curves using SoftmaxPro software (Molecular Devices Cooperation, Sunnyvale, CA, USA). Melarsoprol (Arsobal Sanofi-Aventis, received from WHO) is used as control. • b. Activity against T. cruzi. Rat skeletal myoblasts (L-6 cells) were seeded in 96-well microtitre plates at 2000 cells/well in 100 µL RPMI 1640 medium with 10% FBS and 2 mM I-glutamine. After 24 h the medium was removed and replaced by 100 µl per well containing 5000 trypomastigote forms of T. cruzi Tulahuen strain C2C4 containing the β-galactosidase (Lac Z) gene (Buckner et al. 1996). After 48 h the medium was removed from the wells and replaced by 100 µl fresh medium with or without a serial drug dilution of eleven 3-fold dilution steps covering a range from 100 to 0.002 µg/ml. After 96 h of incubation the plates were inspected under an inverted microscope to assure growth of the controls and sterility. Then the substrate CPRG/Nonidet (50 µl) was added to all wells. A color reaction developed within 2-6 h and could be read photometrically at 540 nm. Data were analyzed with the graphic programme Softmax Pro (Molecular Devices), which calculated IC50 values by linear regression (Huber 1993) from the sigmoidal dose inhibition curves. […] Activity against L. donovani axenic amastigotes. Amastigotes of L. donovani strain MHOM/ET/67/L82 were grown in axenic culture at 37 °C in SM medium (Cunnigham et al. 1977) at pH 5.4 supplemented with 10% heat-inactivated fetal bovine serum under an atmosphere of 5% CO2 in air. One hundred microlitres of culture medium with 10^5 amastigotes from axenic culture with or without a serial drug dilution were seeded in 96-well microtitre plates. Serial drug dilutions of eleven 3-fold dilution steps covering a range from 90 to 0.002 µg/ml were prepared. After 70 h of incubation the plates were inspected under an inverted microscope to assure growth of the controls and sterile conditions. 10 µl of Alamar Blue (12.5 mg resazurin dissolved in 100 ml distilled water) (Mikus and Steverdig. 2000) were then added to each well and the plates incubated for another 2 h. Then the plates were read with a Spectramax Gemini XS microplate fluorometer (Molecular Devices Cooperation, Sunnyvale, CA, USA) using an excitation wave length of 536 nm and an emission wave length of 588 nm. Data were analyzed using the software Softmax Pro (Molecular Devices Cooperation, Sunnyvale, CA, USA). Decrease of fluorescence (= inhibition) was expressed as percentage of the fluorescence of control cultures and plotted against the drug concentrations. From the sigmoidal inhibition curves the IC50 values were calculated. • d.

[2] = test system: Trypanosoma brucei rhodesiense STIB900; test: Activity against Trypanosoma brucei rhodesiense STIB900 (Alamar Blue); assay type: cell-based; details: Trypanosoma brucei
Procedure: as §5

[3] = test system: P. falciparum NF54 strain; test: Activity against P. falciparum, 3H-hypoxanthine incorporation assay; assay type: cell-based; details: Plasmodium falciparum, NF54
[4] = test system: L. donovani strain MHOM/ET/67/L82; test: Activity against L. donovani axenic amastigotes (Alamar Blue); assay type: cell-based; details: Leishmania donovani
Procedure: as §5

CCOC(=O)/C=C/C(=O)[C@H](C)NC(=O)[C@H](Cc1ccccc1)NC(=O)OCc1ccccc1
CL(K2nd(M-1s-1)) (Cathepsin L (human)): 197273 M⁻¹ s⁻¹
IC50 (Cathepsin L (human)): 90 nM
RD(K2nd(M-1s-1)) (Rhodesain): 6481 M⁻¹ s⁻¹
IC50 (Rhodesain): 590 nM
FP2(K2nd(M-1s-1)) (Falcipain 2): 28285 M⁻¹ s⁻¹
CB(K2nd(M-1s-1)) (Cathepsin B (human)): 4738 M⁻¹ s⁻¹
IC50 (Cathepsin B (human)): 140 nM
CR(K2nd(M-1s-1)) (cruzain (CR)): 139583 M⁻¹ s⁻¹
IC50 (cruzain (CR)): 290 nM

CCOC(=O)/C=C/C(=O)[C@H](C)NC(=O)[C@H](CC(C)C)NC(=O)OCc1ccccc1
CL(K2nd(M-1s-1)) (Cathepsin L (human)): 9821 M⁻¹ s⁻¹
IC50 (Cathepsin L (human)): 550 nM
RD(K2nd(M-1s-1)) (Rhodesain): 14207 M⁻¹ s⁻¹
IC50 (Rhodesain): 800 nM
FP2(K2nd(M-1s-1)) (Falcipain 2): 12013 M⁻¹ s⁻¹
IC50 (Falcipain 2; 25 °C, pH 5.5, 25µM substrate): 1180 nM
CB(K2nd(M-1s-1)) (Cathepsin B (human)): 85470 M⁻¹ s⁻¹
IC50 (Cathepsin B (human)): 70 nM
CR(K2nd(M-1s-1)) (cruzain (CR)): 14412 M⁻¹ s⁻¹
IC50 (cruzain (CR)): 630 nM

CCOC(=O)/C=C/C(=O)[C@H](CCc1ccccc1)NC(=O)[C@H](Cc1ccccc1)NC(=O)OCc1ccccc1 [FGA-44]
IC50 ([1]; mean of replicates, read-out: T.cruzi. IC50 mean): 10.9 µg/mL (≈ 20.1 µM)
IC50 ([1]; replicate 1, L-6 cells, 96 h, read-out: T.cruzi. IC50 repl1): 7.74 µg/mL (≈ 14.3 µM)
IC50 ([1]; replicate 2, L-6 cells, 96 h, read-out: T.cruzi. IC50 repl2): 14.1 µg/mL (≈ 26 µM)
IC50 ([2]; 70 h, replicate 1, bloodstream forms, 70 h, read-out: T.b.rhod. IC50 repl1): 0.446 µg/mL (≈ 0.822 µM)
IC50 ([2]; 70 h, replicate 2, bloodstream forms, 70 h, read-out: T.b.rhod. IC50 repl2): 0.564 µg/mL (≈ 1.04 µM)
IC50 ([2]; mean of replicates, read-out: T.b.rhod. IC50 mean): 0.505 µg/mL (≈ 0.931 µM)
IC50 ([3]; mean of replicates, read-out: P.falc NF54 IC50 mean): 6.82 µg/mL (≈ 12.6 µM)
IC50 ([3]; replicate 1, erythrocytic stages, read-out: P.falc NF54 IC50 repl1): 7.19 µg/mL (≈ 13.3 µM)
IC50 ([3]; replicate 2, erythrocytic stages, read-out: P.falc NF54 IC50 repl2): 6.44 µg/mL (≈ 11.9 µM)
IC50 ([4]; mean of replicates, read-out: L.don. ax am IC50 mean): 6.87 µg/mL (≈ 12.7 µM)
IC50 ([4]; replicate 1, axenic amastigotes, pH 5.4, 70 h, read-out: L.don. ax am IC50 repl1): 6.87 µg/mL (≈ 12.7 µM)
